Test results as given in ChEMBL document CHEMBL1201862, “PubChem BioAssay data set” (2004).
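Cells were grown in 96-well plates and exposed to each compound for 48 hours at five concentrations; endpoints were interpolated linearly between bracketing concentrations, or set to the highest concentration if not reached. GI50: concentration for 50% inhibition of growth.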 Calls of active or inactive are those of the source. Rule as the data show it: active = GI50 up to about 1.1 µM and inactive = higher.

How the values were obtained:
Experiment in all cases: growth of human tumour cells (NCI), 48 h
786-0 = tested on: 786-0
COLO 205 = tested on: COLO 205
HCC 2998 = tested on: HCC 2998
HCT-15 = tested on: HCT-15
HOP-62 = tested on: HOP-62
HT-29 = tested on: HT-29
Hs-578T = tested on: Hs-578T
IGROV-1 = tested on: IGROV-1
MDA-MB-435 = tested on: MDA-MB-435
NCI-H23 = tested on: NCI-H23
NCI-H522 = tested on: NCI-H522
OVCAR-8 = tested on: OVCAR-8
PC-3 = tested on: PC-3
RPMI-8226 = tested on: RPMI-8226
SNB-75 = tested on: SNB-75
TK-10 = tested on: TK-10
U-251 = tested on: U-251
CCRF-CEM = tested on: CCRF-CEM
SK-MEL-2 = tested on: SK-MEL-2

Compound	GI50 (786-0)	GI50 (COLO 205)	GI50 (HCC 2998)	GI50 (HCT-15) [µM]	GI50 (HOP-62)	GI50 (HT-29)	GI50 (Hs-578T)	GI50 (IGROV-1)	GI50 (MDA-MB-435)	GI50 (NCI-H23)	GI50 (NCI-H522)	GI50 (OVCAR-8)	GI50 (PC-3)	GI50 (RPMI-8226)	GI50 (SNB-75)	GI50 (TK-10)	GI50 (U-251)	GI50 (CCRF-CEM)	GI50 (SK-MEL-2)
CSC1NC(c2ccc(Cl)cc2)=C(C#N)C(=O)N1C1OCC(OC(C)=O)C(OC(C)=O)C1OC(C)=O (stereo unspecified)	> 100 µM (inactive)	> 100 µM (inactive)	> 100 µM (inactive)	62.1	> 100 µM (inactive)	> 100 µM (inactive)	> 100 µM (inactive)	> 100 µM (inactive)	> 100 µM (inactive)	> 100 µM (inactive)	> 100 µM (inactive)	> 100 µM (inactive)	> 100 µM (inactive)	> 100 µM (inactive)	> 100 µM (inactive)	> 100 µM (inactive)	> 100 µM (inactive)	–	–
O=C(O)c1cccc(CN2CCCCC2)c1	> 100 µM (inactive)	> 100 µM (inactive)	> 100 µM (inactive)	> 100	> 100 µM (inactive)	> 100 µM (inactive)	> 100 µM (inactive)	> 100 µM (inactive)	> 100 µM (inactive)	> 100 µM (inactive)	> 100 µM (inactive)	> 100 µM (inactive)	> 100 µM (inactive)	> 100 µM (inactive)	–	> 100 µM (inactive)	> 100 µM (inactive)	> 100 µM (inactive)	> 100 µM (inactive)
O=C(OC(=C(c1ccccc1)c1ccccc1)N1CCCC1=S)C(c1ccccc1)c1ccccc1	> 10 µM (inactive)	2.21 µM (inactive)	9.44 µM (inactive)	4.13	> 10 µM (inactive)	4.42 µM (inactive)	> 10 µM (inactive)	> 10 µM (inactive)	> 10 µM (inactive)	4.23 µM (inactive)	–	7.96 µM (inactive)	3.24 µM (inactive)	7.55 µM (inactive)	4.91 µM (inactive)	> 10 µM (inactive)	6.32 µM (inactive)	3.94 µM (inactive)	> 10 µM (inactive)
Clc1ccc(C2=C(c3ccccc3)C(c3ccc(Cl)cc3)N3C(=N[C@H]4CCCC[C@@H]43)N2)cc1 (stereo partly specified)	14.7 µM (inactive)	6.64 µM (inactive)	3.08 µM (inactive)	5.96	–	3.27 µM (inactive)	19.4 µM (inactive)	12.9 µM (inactive)	14.5 µM (inactive)	14.2 µM (inactive)	–	13.7 µM (inactive)	10.2 µM (inactive)	2.48 µM (inactive)	15.2 µM (inactive)	10.5 µM (inactive)	11.3 µM (inactive)	3.58 µM (inactive)	16.4 µM (inactive)
Cc1ccc(S(=O)(=O)NN=C2CCCCCCCCCCC2)cc1	> 100 µM (inactive)	> 100 µM (inactive)	> 100 µM (inactive)	> 100	> 100 µM (inactive)	> 100 µM (inactive)	35.7 µM (inactive)	> 100 µM (inactive)	> 100 µM (inactive)	> 100 µM (inactive)	> 100 µM (inactive)	> 100 µM (inactive)	> 100 µM (inactive)	> 100 µM (inactive)	–	> 100 µM (inactive)	> 100 µM (inactive)	> 100 µM (inactive)	> 100 µM (inactive)
O=C1CCCc2ccc3c(c21)CC1(Cc2ccccc2C1)C3	29.1 µM (inactive)	17.2 µM (inactive)	41.5 µM (inactive)	41.7	39.1 µM (inactive)	17.5 µM (inactive)	25.9 µM (inactive)	50.9 µM (inactive)	27 µM (inactive)	36.8 µM (inactive)	23.9 µM (inactive)	34.2 µM (inactive)	98.4 µM (inactive)	16.9 µM (inactive)	1.26 µM (inactive)	69.5 µM (inactive)	41.8 µM (inactive)	–	> 100 µM (inactive)
COC(=O)c1c(O)ccc2c1c1c(n2Cc2ccccn2)C(=O)c2ccccc2C1=O	30.9 µM (inactive)	14.5 µM (inactive)	13.2 µM (inactive)	46	26.7 µM (inactive)	4.22 µM (inactive)	46.1 µM (inactive)	26.4 µM (inactive)	86.7 µM (inactive)	57.1 µM (inactive)	15.8 µM (inactive)	50.4 µM (inactive)	58.7 µM (inactive)	25.3 µM (inactive)	–	99.8 µM (inactive)	35.7 µM (inactive)	80 µM (inactive)	42.7 µM (inactive)
CCN(CC)CCO/N=C1\CC[C@H]2[C@@H]3CC=C4C[C@@H](O)CC[C@]4(C)[C@H]3CC[C@]12C	17.3 µM (inactive)	12.8 µM (inactive)	16.9 µM (inactive)	10.5	17.6 µM (inactive)	3.67 µM (inactive)	34 µM (inactive)	31.8 µM (inactive)	17.3 µM (inactive)	16.2 µM (inactive)	17.3 µM (inactive)	21.5 µM (inactive)	19 µM (inactive)	16.9 µM (inactive)	26.4 µM (inactive)	27.6 µM (inactive)	14.4 µM (inactive)	–	23.3 µM (inactive)
Cc1n[nH]c(C(F)(F)F)c1/N=N/N(C)C	1.24 µM (inactive)	2.98 µM (inactive)	14 µM (inactive)	7.26	10 µM (inactive)	4.98 µM (inactive)	15.6 µM (inactive)	–	14.5 µM (inactive)	5.73 µM (inactive)	1.37 µM (inactive)	11.1 µM (inactive)	11.1 µM (inactive)	2.14 µM (inactive)	–	7.91 µM (inactive)	11 µM (inactive)	2.63 µM (inactive)	17.2 µM (inactive)
N#Cc1c(N)nc2c(C#N)c(N)cc3c2c1Oc1ccccc1-3	> 100 µM (inactive)	> 100 µM (inactive)	> 100 µM (inactive)	> 100	> 100 µM (inactive)	> 100 µM (inactive)	> 100 µM (inactive)	> 100 µM (inactive)	> 100 µM (inactive)	> 100 µM (inactive)	–	> 100 µM (inactive)	> 100 µM (inactive)	> 100 µM (inactive)	> 100 µM (inactive)	> 100 µM (inactive)	> 100 µM (inactive)	> 100 µM (inactive)	> 100 µM (inactive)
Cc1ccc(C(=O)Cn2c(C(=O)/C=C/c3cccs3)nc3ccccc32)cc1	45.5 µM (inactive)	41.1 µM (inactive)	21 µM (inactive)	31.3	67.1 µM (inactive)	38.5 µM (inactive)	20.7 µM (inactive)	25 µM (inactive)	21.3 µM (inactive)	29.9 µM (inactive)	–	–	28.6 µM (inactive)	21.7 µM (inactive)	> 100 µM (inactive)	53.2 µM (inactive)	39.1 µM (inactive)	11.5 µM (inactive)	12.6 µM (inactive)
O=C1C=CC(=O)c2c(O)nc(CBr)nc21	> 100 µM (inactive)	> 100 µM (inactive)	> 100 µM (inactive)	> 100	> 100 µM (inactive)	60.5 µM (inactive)	> 100 µM (inactive)	> 100 µM (inactive)	30.4 µM (inactive)	80.5 µM (inactive)	> 100 µM (inactive)	> 100 µM (inactive)	42.2 µM (inactive)	97.9 µM (inactive)	> 100 µM (inactive)	–	95.9 µM (inactive)	–	> 100 µM (inactive)
